Experimental data from patent US10188634B2, “3-(3H-imidazo[4,5-C]pyridin-2-yl)-1 H-pyrazolo[4,3-B]pyridines and therapeutic uses thereof” (Samumed, LLC, priority 2015, dated 2019).

Tests used:
Format in all cases: cell-based
[1] = tested on: Wnt activity (Sp5-Luc reporter, human Sp5 promoter with eight TCF/LEF binding sites) in SW480 colon carcinoma cells; assay: Screening assay for Wnt activity: Sp5-Luc reporter gene assay in SW480 cells; settings: 10-point dose-response starting from 10 μM, overnight incubation
Excerpt: The screening assay for Wnt activity is described as follows. Reporter cell lines can be generated by stably transducing cancer cell lines (e.g., colon cancer) or primary cells (e.g., IEC-6 intestinal cells) with a lentiviral construct that includes a Wnt-responsive promoter driving expression of the firefly luciferase gene.
SW480 colon carcinoma cells were transduced with a lentiviral vector expressing luciferase with a human Sp5 promoter consisting of a sequence of eight TCF/LEF binding sites. SW480 cells stably expressing the Sp5-Luc reporter gene and a hygromycin resistance gene were selected by treatment with 150 μg/mL of hygromycin for 7 days. These stably transduced SW480 cells were expanded in cell culture and used for all further screening activities. Each compound was dissolved in DMSO as a 10 mM stock and used to prepare compound source plates. Serial dilution (1:3, 10-point dose-response curves starting from 10 μM) and compound transfer was performed using the ECHO 550 (Labcyte, Sunnyvale, Calif.) into 384-well white solid bottom assay plates (Greiner Bio-One) with appropriate DMSO backfill for a final DMSO concentration of 0.1%. For Sp5-Luc reporter gene assays, the cells were plated at 4,000 cells/well in 384-well plates with medium containing 1% fetal bovine serum and incubated overnight at 37° C. and 5% CO2. Following incubation, 20 μl of BrightGlo luminescence reagent (Promega) was added to each well of the 384-well assay plates. The plates were placed on an orbital shaker for 2 min and then luminescence was quantified using the Envision (Perkin Elmer) plate reader. Readings were normalized to DMSO only treated cells, and normalized activities were utilized for EC50 calculations using the dose-response log (inhibitor) vs. response -variable slope (four parameters) nonlinear regression feature available in GraphPad Prism 5.0 (or Dotmatics). For EC50 of >10 μM, the percent inhibition at 10 μM is provided.

SW480 colon cancer cells = assay: Cell viability assay (CellTiter-Blue) in SW480 colon cancer cells; settings: Homo sapiens, 96 h, four days incubation, CellTiter-Blue cell viability
Method: Representative compounds were screened using the following assay procedure to assess the effect on cell viability as described below.
Each compound was dissolved in DMSO as a 10 mM stock and used to prepare compound source plates. Serial dilution (1:3, 8-point dose-response curves from 10 μM to 0.004 μM) and compound transfer was performed using the ECHO 550 (Labcyte, Sunnyvale, Calif.) into 96-well clear bottom, black-walled plates (Corning-Costar).
Approximately 2×10^3 SW480 colon cancer cells were seeded into each well and allowed to incubate in the presence or absence of compound for four days at 37° C./5% CO2. Eight replicates of DMSO-treated cells served as controls and cells treated with compound were performed in duplicate.
After incubation, 20 μL of CellTiter-Blue (Promega) was added to each well allowed to incubate for approximately 3 hours. This reagent was a buffered solution which contains resazurin, metabolically active cells were able to reduce rezarurin (blue) into resorufin (pink) which was highly fluorescent. This measured fluorescence was used as a readout for cell viability.
After incubation, the plates were read at Ex 560 nm Em 590 nm (Cytation 3, BioTek). Dose-response curves were generated and EC50 concentration values were calculated using non-linear regression curve fit in the GraphPad Prism (San Diego, Calif.) or Dotmatics' Studies Software (Bishops Stortford, UK). For EC50 of >10 μM, the percent inhibition at 10 μM is provided.

[2] = tested on: LL29 cells (primary human fibroblasts derived from IPF patients) treated with TGF-β1, α-smooth muscle actin; assay: Inhibition of the fibrotic process: αSMA staining in TGF-β1 treated primary human fibroblasts from IPF patients (LL29 cells); settings: Fibroblast, 96 h, LL29 cells treated with TGF-β1 (20 ng/mL), 4 days
Excerpt: Representative compounds were screened using primary human fibroblasts (derived from IPF patients) treated with TGF-β1 to determine their ability to inhibit the fibrotic process.
Human Fibroblast Cell Culture: Primary human fibroblasts derived from IPF patients (LL29 cells) [^1Xiaoqiu Liu, et.al., “Fibrotic Lung Fibroblasts Show Blunted Inhibition by cAMP Due to Deficient cAMP Response Element-Binding Protein Phosphorylation”, Journal of Pharmacology and Experimental Therapeutics (2005), 315(2), 678-687; ^2Watts, K. L., et.al., “RhoA signaling modulates cyclin D1 expression in human lung fibroblasts; implications for idiopathic pulmonary fibrosis”, Respiratory Research (2006), 7(1), 88] were obtained from American Type Culture Collection (ATCC) and expanded in F12 medium supplemented with 15% Fetal Bovine Serum and Penicillin/Streptomycin.
Compound Screening: Each compound was dissolved in DMSO as a 10 mM stock and used to prepare compound source plates. […] LL29 cells are plated at 1,500 cells/well in 80 μL/well F12 medium supplemented with 1% Fetal Bovine Serum. One hour after addition of the cells, TGF-β1 (Peprotech; 20 ng/mL) was added to the plates to induce fibrosis (ref. 1 and 2 above). Wells treated with TGF-β1 and containing DMSO were used as controls. Cells were incubated at 37° C. and 5% CO2 for 4 days. Following incubation for 4 days, SYTOX green nucleic acid stain (Life Technologies [Thermo Fisher Scientific]) was added to the wells at a final concentration of 1 μM and incubated at room temperature for 30 min. Cells were then fixed using 4% formaldehyde (Electron Microscopy Sciences), washed 3 times with PBS followed by blocking and permeabilization using 3% Bovine Serum Albumin (BSA; Sigma) and 0.3% Triton X-100 (Sigma) in PBS. Cells were then stained with antibody specific to α-smooth muscle actin (αSMA; Abcam) (ref. 1 and 2 above) in 3% Bovine Serum Albumin (BSA; Sigma) and 0.3% Triton X-100 (Sigma) in PBS, and incubated overnight at 4° C. Cells were then washed 3 times with PBS, followed by incubation with Alexa Flor-647 conjugated secondary antibody (Life Technologies [Thermo Fisher Scientific]) and DAPI at room temperature for 1 hour. Cells were then washed 3 times with PBS and plates were sealed for imaging. αSMA staining was imaged by excitation at 630 nm and emission at 665 nm and quantified using the Compartmental Analysis program on the CellInsight CX5 (Thermo Scientific). Dead or apoptotic cells were excluded from analysis based on positive SYTOX green staining. % of total cells positive for αSMA were counted in each well and normalized to the average of 11 wells treated with TGF-β1 on the same plate using Dotmatics' Studies Software. The normalized averages (fold change over untreated) of 3 replicate wells for each compound concentration were used to create dose-responses curves and EC50 values were calculated using non-linear regression curve fit in the Dotmatics' Studies Software. For EC50 of >10 μM, the percent inhibition at 10 μM is provided.

IL-6 in THP-1 cells = assay: Inhibition of IL-6 in LPS-stimulated THP-1 human monocyte cells (HTRF); settings: IL-6 HTRF; for EC50: 500 ng/mL LPS, 22 hours; for inhibition at 10 µM: LPS, read-out: percent inhibition in brackets (given for EC50 >10 μM)
Method: Human Monocyte Cell Culture: Human monocyte cell line (THP-1 cells; Catalog # TIB-202, ATCC, Manassas, Va.) were cultured in Roswell Park Memorial Institute (RPMI) 1640 Medium (Catalog #21870-100, Buffalo, N.Y.) with 1% L-glutamine, 1% HEPES, 1% Sodium Pyruvate, 2% Sodium Bicarbonate supplemented with 100 units/mL penicillin, 50 μg/mL streptomycin, 2-mercaptoethanol (0.05 mM) [basal medium] and 10% fetal bovine serum (Catalog #16140089, Life Technologies, Carlsbad, Calif.) at 37° C. and 5% CO2.
Compound Screening: THP-1 cells were cultured in basal media with 1% FBS for 24 hours before the start of the assay. Each compound was dissolved in DMSO as a 10 mM stock and used to prepare compound source plates. Serial dilution (1:3, 10-point dose-response curves starting from 10 μM) and compound transfer was performed using the ECHO 550 (Labcyte, Sunnyvale, Calif.) into 384-well white low volume assay plates (Greiner Bio-One) with appropriate DMSO backfill for a final DMSO concentration of 0.1%. THP-1 cells were plated at 5000 cells/well in the 384-well plates and incubated at 37° C. for 2 h. 500 ng/mL of LPS was added after 2 hours and cells were incubated for another 22 hours at 37° C. Plates were spun in a centrifuge for 1 minute at […] and a mixture of anti-IL6 XL665, and anti-IL6 Cryptate diluted in reconstitution buffer (Cisbio Inc.) was added to each well. Following incubation for 3 hrs at room temperature, Homogeneous Time-Resolved Fluorescence (HTRF) was measured using the Envision (Perkin Elmer) at 665 nm and […]. The ratio of fluorescence at 665 nm to 620 nm was used as a readout for IL6 quantification. All samples were processed in duplicate. Readings were normalized to DMSO treated cells and normalized activities were utilized for EC50 calculations using the dose-response log (inhibitor) vs. response -variable slope (four parameters) nonlinear regression feature available in GraphPad Prism 5.0 (or Dotmatics). For EC50 of >10 μM, the percent inhibition at 10 μM is provided.

Row | SMILES | EC50 [1] | EC50 (SW480 colon cancer cells) | EC50 (IL-6 in THP-1 cells) | EC50 [2] | inhibition at 10 µM (IL-6 in THP-1 cells)
1 | O=C(Nc1cncc(-c2ccc3[nH]nc(-c4nc5c(N6CCCCC6)cncc5[nH]4)c3n2)c1)C1CC1 [Compound 188, N-(5-(3-(7-(Piperidin-1-yl)-3H-imidazo[4,5-c]pyridin-2-yl)-1H-pyrazolo[4,3-b]pyridin-5-yl)pyridin-3-yl)cyclopropanecarboxamide] | 9.7 µM | 4.42 µM | 1.4 µM | 4.94 µM | –
2 | FC1(F)CCN(Cc2cncc(-c3ccc4[nH]nc(-c5nc6c(N7CCCCC7)cncc6[nH]5)c4n3)c2)C1 [Compound 194, 5-(5-((3,3-Difluoropyrrolidin-1-yl)methyl)pyridin-3-yl)-3-(7-(piperidin-1-yl)-3H-imidazo[4,5-c]pyridin-2-yl)-1H-pyrazolo[4,3-b]pyridine] | 2.33 µM | 3.59 µM | 6.55 µM | 2.71 µM | –
3 | c1ccc(CNCc2cncc(-c3ccc4[nH]nc(-c5nc6c(-c7ccsc7)cncc6[nH]5)c4n3)c2)cc1 [Compound 276, N-Benzyl-1-(5-(3-(7-(thiophen-3-yl)-3H-imidazo[4,5-c]pyridin-2-yl)-1H-pyrazolo[4,3-b]pyridin-5-yl)pyridin-3-yl)methanamine] | 3.46 µM | 1.18 µM | > 10 µM | 7.47 µM | 39.9%
4 | CN(C)CCNc1cc(F)cc(-c2cncc3[nH]c(-c4n[nH]c5ccc(-c6cncc(CNCC7CCCC7)c6)nc45)nc23)c1 [Compound 445, N^1-(3-(2-(5-(5-(((Cyclopentylmethyl)amino)methyl)pyridin-3-yl)-1H-pyrazolo[4,3-b]pyridin-3-yl)-3H-imidazo[4,5-c]pyridin-7-yl)-5-fluorophenyl)-N^2,N^2-dimethylethane-1,2-diamine] | 9.28 µM | 8.71 µM | > 10 µM | 4.02 µM | 45.8%
5 | Fc1cccc(-c2cncc3[nH]c(-c4n[nH]c5ccc(-c6cncc(OCCN7CCCC7)c6)nc45)nc23)c1 [Compound 486, 3-(7-(3-Fluorophenyl)-3H-imidazo[4,5-c]pyridin-2-yl)-5-(5-(2-(pyrrolidin-1-yl)ethoxy)pyridin-3-yl)-1H-pyrazolo[4,3-b]pyridine] | 3.43 µM | 9.34 µM | > 10 µM | 2.12 µM | 47.4%
6 | COc1cncc(-c2ccc3[nH]nc(-c4nc5c(N6CCCCC6)cncc5[nH]4)c3n2)c1 [Compound 584, 5-(5-Methoxylpyridin-3-yl)-3-(7-(piperidin-1-yl)-3H-imidazo[4,5-c]pyridin-2-yl)-1H-pyrazolo[4,3-b]pyridine] | 3.39 µM | 2.18 µM | 0.044 µM | 1.65 µM | –

Molecules with a lower EC50 [1], results first:

Row | EC50 [1] | EC50 (SW480 colon cancer cells) | EC50 (IL-6 in THP-1 cells) | SMILES | EC50 [2] | inhibition at 10 µM (IL-6 in THP-1 cells)
7 | 1.26 µM | 1.39 µM | 3.53 µM | Fc1ccccc1-c1cncc2[nH]c(-c3n[nH]c4ccc(-c5cncc(CNCC6CCCC6)c5)nc34)nc12 [Compound 81, 1-Cyclopentyl-N-((5-(3-(7-(2-fluorophenyl)-3H-imidazo[4,5-c]pyridin-2-yl)-1H-pyrazolo[4,3-b]pyridin-5-yl)pyridin-3-yl)methyl)methanamine] | 1.94 µM | –
8 | 1.71 µM | 2.14 µM | 1.68 µM | CN(C)CCNc1cc(F)cc(-c2cncc3[nH]c(-c4n[nH]c5ccc(-c6ccccn6)nc45)nc23)c1 [Compound 448, N^1-(3-Fluoro-5-(2-(5-(pyridin-2-yl)-1H-pyrazolo[4,3-b]pyridin-3-yl)-3H-imidazo[4,5-c]pyridin-7-yl)phenyl)-N^2,N^2-dimethylethane-1,2-diamine] | 0.941 µM | –
9 | 1.92 µM | 2.54 µM | 8.78 µM | CN1CCN(c2cncc3[nH]c(-c4n[nH]c5ccc(-c6cncc(OC7CCCCC7)c6)nc45)nc23)CC1 [Compound 611, 5-(5-(Cyclohexyloxy)pyridin-3-yl)-3-(7-(4-methylpiperazin-1-yl)-3H-imidazo[4,5-c]pyridin-2-yl)-1H-pyrazolo[4,3-b]pyridine] | 1.33 µM | –
